Measurements reported in PubChem BioAssay AID2060610 (Molecular Pharmacology Branch, DTP, NCI, 2025).

Test system: 616215-338-R-J1-PDC complex spheroids, viability % test/control
Experiment: Anticancer human tumor 616215-338-R-J1-PDC patient-derived colon adenocarcinoma cell line growth inhibition [CLK]
Conditions: for IC50: curve of first compound; for viability, T/C: stronger effect = lower value
Outline: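 Multi-cell-type spheroids combined patient-derived tumor cells with HUVEC endothelial cells and human mesenchymal stem cells. Paired agents were dosed in half-log steps down from about clinical Cmax, or from 10 microM where Cmax was unknown.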

[1] = second compound 0.0316 µM, first compound 0.00316 µM
[2] = second compound 0.0316 µM, first compound 0.01 µM
[3] = second compound 0.0316 µM, first compound 0.0316 µM
[4] = second compound 0.0316 µM, first compound 0.1 µM
[5] = second compound 0.0316 µM, first compound 0.316 µM
[6] = second compound 0.0316 µM, first compound 1 µM
[7] = second compound 0.1 µM, first compound 0.00316 µM
[8] = second compound 0.1 µM, first compound 0.01 µM
[9] = second compound 0.1 µM, first compound 0.0316 µM
[10] = second compound 0.1 µM, first compound 0.1 µM
[11] = second compound 0.1 µM, first compound 0.316 µM
[12] = second compound 0.1 µM, first compound 1 µM
[13] = second compound 0.316 µM, first compound 0.00316 µM
[14] = second compound 0.316 µM, first compound 0.01 µM
[15] = second compound 0.316 µM, first compound 0.0316 µM
[16] = second compound 0.316 µM, first compound 0.1 µM
[17] = second compound 0.316 µM, first compound 0.316 µM
[18] = second compound 0.316 µM, first compound 1 µM
[19] = second compound 1 µM, first compound 0.00316 µM
[20] = second compound 1 µM, first compound 0.01 µM
[21] = second compound 1 µM, first compound 0.0316 µM
[22] = second compound 1 µM, first compound 0.1 µM
[23] = second compound 1 µM, first compound 0.316 µM
[24] = second compound 1 µM, first compound 1 µM
[25] = second compound 3.16 µM, first compound 0.00316 µM
[26] = second compound 3.16 µM, first compound 0.01 µM
[27] = second compound 3.16 µM, first compound 0.0316 µM
[28] = second compound 3.16 µM, first compound 0.1 µM
[29] = second compound 3.16 µM, first compound 0.316 µM
[30] = second compound 3.16 µM, first compound 1 µM
[31] = second compound 10 µM, first compound 0.00316 µM
[32] = second compound 10 µM, first compound 0.01 µM
[33] = second compound 10 µM, first compound 0.0316 µM
[34] = second compound 10 µM, first compound 0.1 µM
[35] = second compound 10 µM, first compound 0.316 µM
[36] = second compound 10 µM, first compound 1 µM
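Further: spheroids exposed to agents for 7 days.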
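Wherever viability, T/C is given: 100% = DMSO vehicle wells.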

What does the source list for `CCN1CCN(Cc2ccc(Nc3ncc(F)c(-c4cc(F)c5nc(C)n(C(C)C)c5c4)n3)nc2)CC1` + CN1CCN(c2cc(C(=O)Nc3cc4cc(-c5cnn(C)c5)ccc4cn3)ccn2)CC1?
IC50 (second compound 0.0316 µM): 951 nM; IC50 (second compound 0.1 µM): 885 nM; IC50 (second compound 0.316 µM): < 3.16 nM; IC50 (second compound 1 µM): < 3.16 nM; IC50 (second compound 3.16 µM): < 3.16 nM; IC50 (second compound 10 µM): < 3.16 nM; viability, T/C [1]: 111%; viability, T/C [2]: 105%; viability, T/C [3]: 112%; viability, T/C [4]: 149%; viability, T/C [5]: 175%; viability, T/C [6]: 46.2%; viability, T/C [7]: 114%; viability, T/C [8]: 131%; viability, T/C [9]: 116%; viability, T/C [10]: 154%; viability, T/C [11]: 120%; viability, T/C [12]: 41.6%; viability, T/C [13]: 32.6%; viability, T/C [14]: 32.6%; viability, T/C [15]: 37.6%; viability, T/C [16]: 48.6%; viability, T/C [17]: 42.6%; viability, T/C [18]: 12.8%; viability, T/C [19]: 0.15%; viability, T/C [20]: 0.73%; viability, T/C [21]: 1.7%; viability, T/C [22]: 0.2%; viability, T/C [23]: 2.07%; viability, T/C [24]: 1.73%; viability, T/C [25]: 0.15%; viability, T/C [26]: 0.16%; viability, T/C [27]: 0.15%; viability, T/C [28]: 0.13%; viability, T/C [29]: 0.76%; viability, T/C [30]: 0.18%; viability, T/C [31]: 0.2%; viability, T/C [32]: 0.19%; viability, T/C [33]: 2.8%; viability, T/C [34]: 0.2%; viability, T/C [35]: 3.09%; viability, T/C [36]: 0.2%

Which IC50 (second compound 0.0316 µM) does the source give for `COc1c(OCCCN2CCOCC2)ccc2c3n(c(=NC(=O)c4cnc(N)nc4)nc12)CCN3` + CN1CCN(c2cc(C(=O)Nc3cc4cc(-c5cnn(C)c5)ccc4cn3)ccn2)CC1 here?
Its IC50 is 86.6 nM.

What about the IC50 (second compound 0.1 µM) of the same compound?
Its IC50 is 36.2 nM.

And the IC50 (second compound 0.316 µM)?
The IC50 was < 3.16 nM.

What about the IC50 (second compound 1 µM) of the same compound?
Its IC50 is < 3.16 nM.

What about the IC50 (second compound 3.16 µM) of the same compound?
Its IC50 is < 3.16 nM.

What about the IC50 (second compound 10 µM) of the same compound?
Its IC50 is < 3.16 nM.

And the viability, T/C [1]?
Its viability, T/C is 105%.

And the viability, T/C [2]?
The viability, T/C was 115%.

What about the viability, T/C [3] of the same compound?
Its viability, T/C is 89.8%.

What about the viability, T/C [4] of the same compound?
The viability, T/C was 44%.

What about the viability, T/C [5] of the same compound?
The viability, T/C was 30.8%.

And the viability, T/C [6]?
Its viability, T/C is 21.6%.

And the viability, T/C [7]?
Its viability, T/C is 110%.

What about the viability, T/C [8] of the same compound?
The viability, T/C was 94.4%.

What about the viability, T/C [9] of the same compound?
Its viability, T/C is 50.1%.

What about the viability, T/C [10] of the same compound?
Its viability, T/C is 29.1%.

What about the viability, T/C [11] of the same compound?
Its viability, T/C is 19.1%.

And the viability, T/C [12]?
The viability, T/C was 12.3%.

And the viability, T/C [13]?
Its viability, T/C is 26.4%.

And the viability, T/C [14]?
The viability, T/C was 25.1%.

What about the viability, T/C [15] of the same compound?
Its viability, T/C is 11.8%.

And the viability, T/C [16]?
Its viability, T/C is 6.03%.

What about the viability, T/C [17] of the same compound?
Its viability, T/C is 4.47%.

And the viability, T/C [18]?
Its viability, T/C is 4.01%.

What about the viability, T/C [19] of the same compound?
The viability, T/C was 0.24%.

What about the viability, T/C [20] of the same compound?
The viability, T/C was 1.7%.

What about the viability, T/C [21] of the same compound?
The viability, T/C was 0.49%.

What about the viability, T/C [22] of the same compound?
The viability, T/C was 0.1%.

What about the viability, T/C [23] of the same compound?
Its viability, T/C is 0.08%.

What about the viability, T/C [24] of the same compound?
The viability, T/C was 1.24%.

And the viability, T/C [25]?
Its viability, T/C is 0.1%.

What about the viability, T/C [26] of the same compound?
The viability, T/C was 2.88%.

And the viability, T/C [27]?
Its viability, T/C is 0.11%.

And the viability, T/C [28]?
The viability, T/C was 0.1%.

What about the viability, T/C [29] of the same compound?
Its viability, T/C is 1.07%.

And the viability, T/C [30]?
The viability, T/C was 0.15%.

And the viability, T/C [31]?
Its viability, T/C is 0.12%.

What about the viability, T/C [32] of the same compound?
The viability, T/C was 0.15%.

What about the viability, T/C [33] of the same compound?
Its viability, T/C is 0.98%.

And the viability, T/C [34]?
Its viability, T/C is 0.33%.

And the viability, T/C [35]?
Its viability, T/C is 0.17%.

What about the viability, T/C [36] of the same compound?
Its viability, T/C is 1.41%.
